What is called IC50 is the point on the concentration scale where inhibition reaches its midpoint.

Structures are written as SMILES. Where only a bound is given, the exact number is not on record here.

T1 sequence (Q9NYV4 whole entry): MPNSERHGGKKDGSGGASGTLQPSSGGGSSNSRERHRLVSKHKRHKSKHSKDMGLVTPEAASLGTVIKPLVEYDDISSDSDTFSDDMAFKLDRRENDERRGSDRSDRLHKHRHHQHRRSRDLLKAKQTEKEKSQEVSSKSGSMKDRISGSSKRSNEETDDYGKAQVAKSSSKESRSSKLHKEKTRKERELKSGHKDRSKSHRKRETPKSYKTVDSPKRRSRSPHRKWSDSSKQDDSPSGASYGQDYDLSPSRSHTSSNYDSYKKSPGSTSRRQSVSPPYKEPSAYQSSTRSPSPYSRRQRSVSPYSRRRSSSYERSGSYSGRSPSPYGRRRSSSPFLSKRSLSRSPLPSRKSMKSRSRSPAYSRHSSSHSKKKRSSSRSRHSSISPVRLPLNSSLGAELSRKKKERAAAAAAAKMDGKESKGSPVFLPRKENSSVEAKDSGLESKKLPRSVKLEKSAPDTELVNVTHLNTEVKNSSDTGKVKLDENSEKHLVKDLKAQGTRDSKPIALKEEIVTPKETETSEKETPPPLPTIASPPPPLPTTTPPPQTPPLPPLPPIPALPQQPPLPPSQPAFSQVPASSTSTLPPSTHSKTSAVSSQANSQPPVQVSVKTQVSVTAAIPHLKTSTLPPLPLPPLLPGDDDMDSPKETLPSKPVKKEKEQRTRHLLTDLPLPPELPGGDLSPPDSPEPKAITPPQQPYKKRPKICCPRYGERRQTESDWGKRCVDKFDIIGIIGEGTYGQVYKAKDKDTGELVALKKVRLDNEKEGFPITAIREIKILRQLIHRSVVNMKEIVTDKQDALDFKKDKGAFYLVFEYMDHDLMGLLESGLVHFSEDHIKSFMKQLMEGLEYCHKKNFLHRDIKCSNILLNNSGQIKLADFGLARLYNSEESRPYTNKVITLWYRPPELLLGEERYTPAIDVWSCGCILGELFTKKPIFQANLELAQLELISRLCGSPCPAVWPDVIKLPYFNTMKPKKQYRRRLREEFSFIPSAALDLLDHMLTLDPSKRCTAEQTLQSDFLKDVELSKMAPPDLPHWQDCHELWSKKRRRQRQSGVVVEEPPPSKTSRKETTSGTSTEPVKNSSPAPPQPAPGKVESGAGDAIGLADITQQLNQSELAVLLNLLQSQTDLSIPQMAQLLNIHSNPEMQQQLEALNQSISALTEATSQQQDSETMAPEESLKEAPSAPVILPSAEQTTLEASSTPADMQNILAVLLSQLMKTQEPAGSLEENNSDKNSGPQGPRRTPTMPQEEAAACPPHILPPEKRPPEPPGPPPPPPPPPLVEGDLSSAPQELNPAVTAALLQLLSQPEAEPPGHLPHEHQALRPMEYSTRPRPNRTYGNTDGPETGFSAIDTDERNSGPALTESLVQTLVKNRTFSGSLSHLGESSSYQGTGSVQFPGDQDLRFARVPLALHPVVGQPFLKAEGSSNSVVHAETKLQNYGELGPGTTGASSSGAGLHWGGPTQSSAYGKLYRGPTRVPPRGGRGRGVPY
T1 sequence (O75909 whole entry partner): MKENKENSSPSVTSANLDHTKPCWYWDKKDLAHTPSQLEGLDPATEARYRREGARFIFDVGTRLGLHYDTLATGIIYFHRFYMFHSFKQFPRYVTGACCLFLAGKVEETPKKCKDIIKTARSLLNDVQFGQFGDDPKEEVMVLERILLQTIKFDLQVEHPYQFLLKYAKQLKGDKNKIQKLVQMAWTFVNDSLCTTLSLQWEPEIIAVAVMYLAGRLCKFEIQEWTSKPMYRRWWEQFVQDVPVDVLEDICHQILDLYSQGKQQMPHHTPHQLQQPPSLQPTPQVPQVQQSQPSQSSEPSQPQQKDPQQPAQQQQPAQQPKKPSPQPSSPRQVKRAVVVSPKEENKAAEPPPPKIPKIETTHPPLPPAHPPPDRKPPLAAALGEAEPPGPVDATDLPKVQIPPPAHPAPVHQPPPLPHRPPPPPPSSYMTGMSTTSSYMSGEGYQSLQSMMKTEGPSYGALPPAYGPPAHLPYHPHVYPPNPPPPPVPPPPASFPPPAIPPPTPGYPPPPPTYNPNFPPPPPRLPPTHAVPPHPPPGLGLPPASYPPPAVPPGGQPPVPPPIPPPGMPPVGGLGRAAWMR

The experiment addresses T1, CDK12 (Homo sapiens, UniProt Q9NYV4).
T1 construct: ProQinase (named as the party running the assay)
Kind of experiment: Radiometric protein kinase assay (33PanQinase), assay condition 1, thiol-free conditions. The experiment is classed as biochemical. As to conditions: thiol-free conditions (1 mM TCEP), ATP at apparent Km. The procedure:
Example 2 —Assay condition 1 (thiol-free conditions)
The IC50 profile of compounds was determined using protein kinase in a customized, thiol free assay. IC50 values were measured by testing 10 concentrations (1×10^−05 M to 3×10^−10 M) of each test compound in singlicate against each kinase of interest. Prior to testing, the 1×10^−03M stock solutions in column 2 of the master plates were subjected to a serial, semi-logarithmic dilution using 100% DMSO as a solvent. […] Column 1 and 7 were filled with 100% DMSO as controls. Subsequently, 2×10 microliter from each well of the serial diluted copy plates were aliquoted with a 96 channel pipettor into two identical sets of “compound dilution plates”. All plates were barcoded for automated identification and tracking purposes. IC50 values were measured by testing 10 concentrations (1×10^−05 M to 3×10^−10 M) of each compound in singlicate. All compounds were stored as powder until being solubilized in DMSO. Solubilized compounds were stored as 1×10^−02 M/100% DMSO stock solutions. Prior to the assay process, 90 microliters of H2O were added to each well of a set of compound dilution plates. To minimize potential precipitation, the H2O was added to each plate only a few minutes before the transfer of the compound solutions into the assay plates. Each plate was shaken thoroughly, resulting in compound dilution plates with a final of 10% DMSO. For each assay, 5 microliters of solution from each well of the compound dilution plates/10% DMSO were transferred into the assay plate. The final volume of the assay was 50 μl. All compounds were tested at 10 final assay concentrations in the range from 1×10^−05 M to 3×10^−10 M, in singlicate. The final DMSO concentration in the reaction cocktails was 1% in all cases. A radiometric protein kinase assay (33PanQinase® Activity Assay) was used for measuring the kinase activity of the protein kinase. All kinase assays were performed in 96-well FlashPlates™ from PerkinElmer (Boston, Mass., USA) in a 50 microliter reaction volume. The reaction cocktail was pipetted in four steps in the following order: 20 microliter of assay buffer (standard buffer) 5 microliter of ATP solution (in H2O) 5 microliter of test compound (in 10% DMSO) 20 microliter enzyme/subtrate mix. Each assay for the protein kinase contained 70 mM HEPES-NaOH pH 7.5, 3 mM MgCl2, 3 mM MnCl2, 3 microM Na-orthovanadate, 1 mM TCEP, 50 μg/ml PEG20000, ATP (corresponding to the apparent ATP-Km of the kinase, see Table A), [gamma-33P]-ATP (approx. 6×10×E5 cpm per well), with the protein kinase and relevant substrate being used in pre-determined amounts, depending on the kinase in question. For all experiments labeled as “Thiol-free”, all glutathione was exchanged from protein preparations so as to be removed from the assay and final buffer conditions contained no thiol- containing reagents. This was done so there would be no interference with the key cysteines in the proteins of interest.
For data analysis, the median value of the counts in column 1 (n=8) of each assay plate was defined as “low control”. This value reflects unspecific binding of radioactivity to the plate in the absence of a protein kinase but in the presence of the substrate. The median value of the counts in column 7 of each assay plate (n=8) was taken as the “high control”, i.e. full activity in the absence of any inhibitor. The difference between high and low control was taken as 100% activity. As part of the data evaluation the low control value from a particular plate was subtracted from the high control value as well as from all 80 “compound values” of the corresponding plate. The residual activity (in %) for each well of a particular plate was calculated by using the following formula:
Res. Activity (%)=100×[(cpm of compound−low control)/(high control−low control)] […]
Take `C=CC(=O)Nc1ccc2c(N3CC[C@@H](Nc4ncc(Cl)cn4)C3)ncnc2c1` [Example 1, (R)-N-(4-(3-((5-chloropyrimidin-2-yl)amino)pyrrolidin-1-yl)quinazolin-7-yl)acrylamide]: the IC50 lay within 0.1 to 1 µM.
With `C=CC(=O)Nc1ccc2c(N3CC[C@@H](Nc4ncc(C(F)(F)F)cn4)C3)ncnc2c1` [Example 2, (R)-N-(4-(3-((5-(trifluoromethyl)pyrimidin-2-yl)amino)pyrrolidin-1-yl)quinazolin-7-yl)acrylamide], the IC50 is no more than 0.1 µM.
In the case of `C=CC(=O)Nc1ccc2c(N3CC[C@@H](Nc4ncc(Cl)c(OCC)n4)C3)ncnc2c1` [Example 3, (R)-N-(4-(3-((5-chloro-4-ethoxypyrimidin-2-yl)amino)pyrrolidin-1-yl)quinazolin-7-yl)acrylamide], the IC50 is no more than 0.1 µM.
Regarding `C=CC(=O)Nc1ccc2c(N3CC[C@@H](Nc4ncc(Cl)c(OC)n4)C3)ncnc2c1` [Example 4, (R)-N-(4-(3-((5-chloro-4-methoxypyrimidin-2-yl)amino)pyrrolidin-1-yl)quinazolin-7-yl)acrylamide], the IC50 is no more than 0.1 µM.
As for `C=CC(=O)Nc1ccc2c(N3CC[C@@H](Nc4ncc(Br)c(OC)n4)C3)ncnc2c1` [Example 5, (R)-N-(4-(3-((5-bromo-4-methoxypyrimidin-2-yl)amino)pyrrolidin-1-yl)quinazolin-7-yl)acrylamide], the IC50 was no more than 0.1 µM.
The same measure for `C=CC(=O)Nc1ccc2c(N3CC[C@@H](Nc4ncc(C(F)(F)F)c(N)n4)C3)ncnc2c1` [Example 6, (R)-N-(4-(3-((4-amino-5-(trifluoromethyl)pyrimidin-2-yl)amino)pyrrolidin-1-yl)quinazolin-7-yl)acrylamide]: no more than 0.1 µM.
Consider `C=CC(=O)Nc1ccc2c(N3CC[C@@H](Nc4ncc(Cl)c(Oc5ccccc5)n4)C3)ncnc2c1` [Example 7, (R)-N-(4-(3-((5-chloro-4-phenoxypyrimidin-2-yl)amino)pyrrolidin-1-yl)quinazolin-7-yl)acrylamide], for which the IC50 lay within 0.1 to 1 µM.
As for `C=CC(=O)Nc1ccc2c(N3CC[C@@H](Nc4ncc5cc(F)ccc5n4)C3)ncnc2c1` [Example 8, (R)-N-(4-(3-((6-fluoroquinazolin-2-yl)amino)pyrrolidin-1-yl)quinazolin-7-yl)acrylamide], the figure is no more than 0.1 µM; as for `C=CC(=O)Nc1ccc2c(N3CC[C@@H](Nc4ncc(Cl)c(C(F)(F)F)n4)C3)ncnc2c1` [Example 9, (R)-N-(4-(3-((5-chloro-4-(trifluoromethyl)pyrimidin-2-yl)amino)pyrrolidin-1-yl)quinazolin-7-yl)acrylamide], no more than 0.1 µM; as for `C=CC(=O)Nc1ccc2c(N3CC[C@@H](Nc4ncc(C5CC5)cn4)C3)ncnc2c1` [Example 10, (R)-N-(4-(3-((5-cyclopropylpyrimidin-2-yl)amino)pyrrolidin-1-yl)quinazolin-7-yl)acrylamide], no more than 0.1 µM.
`C=CC(=O)Nc1ccc2c(N3CC[C@@H](Nc4ncc5sccc5n4)C3)ncnc2c1` [Example 11, (R)-N-(4-(3-(thieno [3,2-d]pyrimidin-2-ylamino)pyrrolidin-1-yl)quinazolin-7-yl)acrylamide]: the IC50 is no more than 0.1 µM.
Consider `C=CC(=O)Nc1ccc2c(N3CC[C@@H](Nc4ncc(C#N)cn4)C3)ncnc2c1` [Example 12, (R)-N-(4-(3-((5-cyanopyrimidin-2-yl)amino)pyrrolidin-1-yl)quinazolin-7-yl)acrylamide], for which the half-inhibitory concentration (IC50) was no more than 0.1 µM.
The same measure for `C=CC(=O)Nc1ccc2c(N3CC[C@@H](Nc4ncc5ccccc5n4)C3)ncnc2c1` [Example 13, (R)-N-(4-(3-(quinazolin-2-ylamino)pyrrolidin-1-yl)quinazolin-7-yl)acrylamide]: no more than 0.1 µM; for `C=CC(=O)Nc1ccc2c(N3CC[C@@H](Nc4ncc(Cl)c(NC)n4)C3)ncnc2c1` [Example 14, (R)-N-(4-(3-((5-chloro-4-(methylamino)pyrimidin-2-yl)amino)pyrrolidin-1-yl)quinazolin-7-yl)acrylamide]: no more than 0.1 µM.
The same measure for `C=CC(=O)Nc1ccc2c(N3CC[C@@H](Nc4ncc(C(F)(F)F)c(NC)n4)C3)ncnc2c1` [Example 15, (R)-N-(4-(3-((4-(methylamino)-5-(trifluoromethyl)pyrimidin-2-yl)amino)pyrrolidin-1-yl)quinazolin-7-yl)acrylamide]: no more than 0.1 µM; for `C=CC(=O)Nc1ccc2c(N3CC[C@@H](Nc4ncc5ccncc5n4)C3)ncnc2c1` [Example 16, (R)-N-(4-(3-(pyrido [3,4-d]pyrimidin-2-ylamino)pyrrolidin-1-yl)quinazolin-7-yl)acrylamide]: no more than 0.1 µM.
The same measure for `C=CC(=O)Nc1ccc2c(N3CC[C@@H](Nc4ncc(Br)cn4)C3)nccc2c1` [Example 18, (R)-N-(1-(3-((5-bromopyrimidin-2-yl)amino)pyrrolidin-1-yl)isoquinolin-6-yl)acrylamide]: no more than 0.1 µM; for `C=CC(=O)Nc1ccc2c(N3CC[C@@H](Nc4ncc(Cl)c(OCC)n4)C3)nccc2c1` [Example 19, (R)-N-(1-(3-((5-chloro-4-ethoxypyrimidin-2-yl)amino)pyrrolidin-1-yl)isoquinolin-6-yl)acrylamide]: no more than 0.1 µM.
For `C=CC(=O)Nc1ccc2c(N3CC[C@@H](Nc4ncc(Br)cn4)C3)nc(N3CCOCC3)nc2c1` [Example 20, (R)-N-(4-(3-((5-bromopyrimidin-2-yl)amino)pyrrolidin-1-yl)-2-morpholinoquinazolin-7-yl)acrylamide], the IC50 was no more than 0.1 µM.
As to `C=CC(=O)Nc1ccc2c(N3CC[C@@H](Nc4ncc(Br)cn4)C3)nc(C)nc2c1` [Example 21, (R)-N-(4-(3-((5-bromopyrimidin-2-yl)amino)pyrrolidin-1-yl)-2-methylquinazolin-7-yl)acrylamide], the IC50 was no more than 0.1 µM.
Regarding `C=CC(=O)Nc1ccc2c(N3CC[C@@H](Nc4ncc(C#N)cn4)C3)nc(N3CCOCC3)nc2c1` [Example 22, (R)-N-(4-(3-((5-cyanopyrimidin-2-yl)amino)pyrrolidin-1-yl)-2-morpholinoquinazolin-7-yl)acrylamide], the IC50 lay within 0.1 to 1 µM.
For `C=CC(=O)Nc1ccc2c(N3CC[C@@H](Nc4ncc(C#N)cn4)C3)nc(N3CCN(C)CC3)nc2c1` [Example 24, (R)-N-(4-(3-((5-cyanopyrimidin-2-yl)amino)pyrrolidin-1-yl)-2-(4-methylpiperazin-1-yl)quinazolin-7-yl)acrylamide], the IC50 is no more than 0.1 µM.
With `C=CC(=O)Nc1ccc2c(N3CC[C@@H](Nc4ncc(Br)cn4)C3)ncnc2c1` [Example 25, (R)-N-(4-(3-((5-bromopyrimidin-2-yl)amino)pyrrolidin-1-yl)quinazolin-7-yl)acrylamide], the IC50 was no more than 0.1 µM.
Consider `C=CC(=O)Nc1ccc2c(N3CC[C@@H](Nc4ncc(C#N)cn4)C3)nccc2c1` [Example 26, (R)-N-(1-(3-((5-cyanopyrimidin-2-yl)amino)pyrrolidin-1-yl)isoquinolin-6-yl)acrylamide], for which the IC50 is no more than 0.1 µM.
With `C=CC(=O)N(C)c1ccc2c(N3CC[C@@H](Nc4ncc(Br)cn4)C3)nccc2c1` [Example 27, (R)-N-(1-(3-((5-bromopyrimidin-2-yl)amino)pyrrolidin-1-yl)isoquinolin-6-yl)-N-methylacrylamide], the IC50 was no more than 0.1 µM.
Turning to `C/C=C/C(=O)Nc1ccc2c(N3CC[C@@H](Nc4ncc(Br)cn4)C3)nccc2c1` [Example 28, (R,E)-N-(1-(3-((5-bromopyrimidin-2-yl)amino)pyrrolidin-1-yl)isoquinolin-6-yl)but-2-enamide], the IC50 is no more than 0.1 µM.
The same measure for `C=CC(=O)Nc1ccc2c(N3CC[C@@H](Nc4ncc(C#N)cn4)C3)nc(N3CCCC3)nc2c1` [Example 29, (R)—N-(4-(3-((5-cyanopyrimidin-2-yl)amino)pyrrolidin-1-yl)-2-(pyrrolidin-1-yl)quinazolin-7-yl)acrylamide]: 0.1 to 1 µM.

The values are drawn from patent US20220388990A1, “INHIBITORS OF CYCLIN-DEPENDENT KINASES” (Kinnate Biopharma Inc., priority 2019, published 2022).
